The text below walks through data of patent US20250346593A1, “IMIDAZO(1,2-1)PYRIDINE DERIVATIVES AS RIPK2 INHIBITORS” (Interline Therapeutics, Inc., priority 2022, published 2025).

The target of assay [1] is GST-RIPK2 fusion protein (human RIPK2 amino acids 1-310) (Homo sapiens (Human), UniProt O43353). As to the kind of experiment: RIPK2 binding competition assay (TR-FRET, Tracer 199). In general terms: In TR-FRET formats the signal depends on donor and acceptor labels being close together.
The subject of assay [2] is NF-κB pathway (SEAP) in THP1-Dual cells. As to the kind of experiment: THP-1 Dual cell SEAP assay (L18-MDP stimulated). The class given is cell-based. The following applies: Homo sapiens, THP1-Dual, read-out: NFkB THP1 IC50.
Where [3] appears, read: read-out: RIPK2 IC50, RIPK2 binding competition assay.

pIC50: −log10 of the molar value. Like-named read-outs stand apart in the source and are kept apart here. Where only a bound is given, the exact number is not on record here.

GST-RIPK2 fusion protein (human RIPK2 amino acids 1-310), sequence (O43353 1-310): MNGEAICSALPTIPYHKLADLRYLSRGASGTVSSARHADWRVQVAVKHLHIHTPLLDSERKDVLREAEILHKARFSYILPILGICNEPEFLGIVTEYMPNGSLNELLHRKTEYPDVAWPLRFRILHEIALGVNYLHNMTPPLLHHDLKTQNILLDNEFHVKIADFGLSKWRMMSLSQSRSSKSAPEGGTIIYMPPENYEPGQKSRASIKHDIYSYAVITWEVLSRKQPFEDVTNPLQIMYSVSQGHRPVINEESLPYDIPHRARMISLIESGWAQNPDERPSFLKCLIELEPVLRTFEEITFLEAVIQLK

What is called pIC50 is the negative decadic logarithm of the IC50, by convention in mol/L. For the compound `COc1cc2ncc(-c3ccc(OC)c(N)c3F)n2cc1S(=O)(=O)C(C)(C)C` [Example 28, 3-(6-(tert-butylsulfonyl)-7-methoxyimidazo[1,2-a]pyridin-3-yl)-2-fluoro-6-methoxyaniline], the figures for the pIC50 in assay [1] and in assay [2] were 7.70 to 8.60 and below 6.00, respectively.
Turning to `COCc1cc(N)cc(-c2cnc3cc(OC)c(S(=O)(=O)C(C)(C)C)cn23)c1` [Example 49, 3-(6-(tert-butylsulfonyl)-7-methoxyimidazo[1,2-a]pyridin-3-yl)-5-(methoxymethyl)aniline], the negative logarithm of the IC50 (pIC50) in assay [1] (setting [3]) is below 7.70; in assay [2] it was 6.00 to 6.60.
The like results for `COc1cc2ncc(-c3cnc(OC)c(N)c3)n2cc1S(=O)(=O)C(C)(C)C` [Example 54, 5-(6-(tert-butylsulfonyl)-7-methoxyimidazo[1,2-a]pyridin-3-yl)-2-methoxypyridin-3-amine] were, in that order, below 7.70 and below 6.00.
`COc1ccc(CNc2cc(-c3cnc4ccc(S(=O)(=O)C(C)(C)C)cn34)cc(F)n2)cc1` [Example 168, 4-(6-(tert-butylsulfonyl)imidazo[1,2-a]pyridin-3-yl)-6-fluoro-N-(4-methoxybenzyl)pyridin-2-amine]: the pIC50 in assay [1] was 8.60 to 9.00; in assay [2] it was 6.00 to 6.60.
Consider `COc1cc2ncc(-c3ccc(N)c(Cl)c3)n2cc1S(=O)(=O)C(C)(C)C` [Example 85, 4-(6-(tert-butylsulfonyl)-7-methoxyimidazo[1,2-a]pyridin-3-yl)-2-chloroaniline], for which the figures for the pIC50 in assay [1] and in assay [2] were 7.70 to 8.60 and 6.00 to 6.60, respectively.
As for `COc1cc2ncc(-c3cc(F)nc(NC4CCC4)c3)n2cc1S(=O)(=O)C(C)(C)C` [Example 180, 4-(6-(tert-butylsulfonyl)-7-methoxyimidazo[1,2-a]pyridin-3-yl)-N-cyclobutyl-6-fluoropyridin-2-amine], the pIC50 was above 9.00 in assay [1] (setting [3]) and 6.60 to 7.30 in assay [2].
Consider `CCCS(=O)(=O)Nc1cc(-c2cnc3cc(OC)c(S(=O)(=O)C(C)(C)C)cn23)cc(C#N)c1OC` [Example 259, N-(5-(6-(tert-butylsulfonyl)-7-methoxyimidazo[1,2-a]pyridin-3-yl)-3-cyano-2-methoxyphenyl)propane-1-sulfonamide], for which the values for the pIC50 in assay [1] and in assay [2] were 7.70 to 8.60 and 6.00 to 6.60, respectively.
Take `COc1cc2ncc(-c3cc(F)nc(NCCOC(F)F)c3)n2cc1S(=O)(=O)C(C)(C)C` [Example 233, 4-(6-(tert-butylsulfonyl)-7-methoxyimidazo[1,2-a]pyridin-3-yl)-N-(2-(difluoromethoxy)ethyl)-6-fluoropyridin-2-amine]: the pIC50 was above 9.00 in assay [1] (setting [3]) and above 7.30 in assay [2].
As to `COc1cc2ncc(-c3cc(F)nc(NC4CC(O)C4)c3)n2cc1S(=O)(=O)C(C)(C)C` (stereo not shown) [Example 191, (1s,3s)-3-((4-(6-(tert-butylsulfonyl)-7-methoxyimidazo[1,2-a]pyridin-3-yl)-6-fluoropyridin-2-yl)amino)cyclobutan-1-ol], in assay [2], the pIC50 was above 7.30.
Regarding `COc1cc2ncc(-c3cc(F)nc(N4CC5(CC(O)C5)C4)c3)n2cc1S(=O)(=O)C(C)(C)C` [Example 218, 2-{6-fluoro-4-[7-methoxy-6-(2-methylpropane-2-sulfonyl)imidazo[1,2-a]pyridin-3-yl]pyridin-2-yl}-2-azaspiro[3.3]heptan-6-o1], the pIC50 in assay [1] was 7.70 to 8.60.
Same read-out and setting: with `COc1cc2ncc(-c3cc(F)nc(N[C@H]4C[C@H](OC)C4)c3)n2cc1S(=O)(=O)C(C)(C)C` [Example 219, 6-fluoro-4-[7-methoxy-6-(2-methylpropane-2-sulfonyl)imidazo[1,2-a]pyridin-3-yl]-N-[(trans)-3-methoxycyclobutyl] pyridin-2-amine] the figure was 8.60 to 9.00.
In assay [1], `COc1ccc(-c2cnc3cc(OC)c(S(=O)(=O)C(C)(C)C)cn23)cc1F` [Example 63, 6-(tert-butylsulfonyl)-3-(3-fluoro-4-methoxyphenyl)-7-methoxyimidazo[1,2-a]pyridine] showed a pIC50 of 7.70 to 8.60.
For `COc1cc2ncc(-c3cc(Cl)ncc3C)n2cc1S(=O)(=O)C(C)(C)C` [Example 159, 6-(tert-Butylsulfonyl)-3-(2-chloro-5-methylpyridin-4-yl)-7-methoxyimidazo[1,2-a]pyridine], in assay [1] (setting [3]), the negative logarithm of the IC50 (pIC50) is below 7.70.
Same read-out and setting: with `COc1cc2ncc(-c3cc(F)nc(NC4CC4)c3)n2cc1S(=O)(=O)C(C)(C)C` [Example 177, 4-(6-(tert-butylsulfonyl)-7-methoxyimidazo[1,2-a]pyridin-3-yl)-N-cyclopropyl-6-fluoropyridin-2-amine] the figure was above 9.00.
In turn, `COc1cc2ncc(-c3cc(F)nc(N4CC5(C4)CC(O)(C(F)(F)F)C5)c3)n2cc1S(=O)(=O)C(C)(C)C` [Example 217, 2-{6-fluoro-4-[7-methoxy-6-(2-methylpropane-2-sulfonyl)imidazo[1,2-a]pyridin-3-yl]pyridin-2-yl}-6-(trifluoromethyl)-2-azaspiro[3.3]heptan-6-ol] showed a negative logarithm of the IC50 (pIC50) in assay [1] of 7.70 to 8.60.
`COc1cc2ncc(-c3cc(F)nc(NCCC4(O)CCC4)c3)n2cc1S(=O)(=O)C(C)(C)C` [Example 187, 1-(2-((4-(6-(tert-butylsulfonyl)-7-methoxyimidazo[1,2-a]pyridin-3-yl)-6-fluoropyridin-2-yl)amino)ethyl)cyclo-butan-1-ol]: the pIC50 in assay [1] (setting [3]) is above 9.00.
On to `COc1cc2ncc(-c3cc(F)nc(N[C@H]4C[C@@H](O)C4)c3)n2cc1S(=O)(=O)C(C)(C)C` [Example 191, (1s,3s)-3-((4-(6-(tert-butylsulfonyl)-7-methoxyimidazo[1,2-a]pyridin-3-yl)-6-fluoropyridin-2-yl)amino)cyclobutan-1-ol], for which the pIC50 in assay [1] is above 9.00.
In assay [1], `COc1cc2ncc(-c3cc(F)nc(NCCC(C)O)c3)n2cc1S(=O)(=O)C(C)(C)C` (racemic) [Example 190, rac-4-((4-(6-(tert-butylsulfonyl)-7-methoxyimidazo[1,2-a]pyridin-3-yl)-6-fluoropyridin-2-yl)amino)butan-2-ol] gave a negative logarithm of the IC50 (pIC50) above 9.00.
Same read-out and setting: the same measure for `COc1cc2ncc(-c3cc(F)nc(N[C@H]4C[C@@H](OC)C4)c3)n2cc1S(=O)(=O)C(C)(C)C` [Example 220, 6-fluoro-4-[7-methoxy-6-(2-methylpropane-2-sulfonyl)imidazo[1,2-a]pyridin-3-yl]-N-[cis-3-methoxycyclobutyl] pyridin-2-amine]: 8.60 to 9.00; for `COc1cc2ncc(-c3ccnc(F)c3)n2cc1S(=O)(=O)C(C)(C)C` [Example 5, 6-(tert-butylsulfonyl)-3-(2-fluoropyridin-4-yl)-7-methoxyimidazo[1,2-a]pyridine]: 7.70 to 8.60; for `COc1cc2ncc(-c3cc(F)nc(N[C@H]4CC[C@H](O)CC4)c3)n2cc1S(=O)(=O)C(C)(C)C` [Example 204, (1r,4r)-4-((4-(6-(tert-butylsulfonyl)-7-methoxyimidazo[1,2-a]pyridin-3-yl)-6-fluoropyridin-2-yl)amino)cyclohexan-1-ol]: 8.60 to 9.00.
Take `COc1cc2ncc(-c3cc(F)nc(NCCC(C)(C)O)c3)n2cc1S(=O)(=O)C(C)(C)C` [Example 189, 4-((4-(6-(tert-butylsulfonyl)-7-methoxyimidazo[1,2-a]pyridin-3-yl)-6-fluoropyridin-2-yl)amino)-2-methylbutan-2-ol]: in assay [1] (setting [3]), the pIC50 is above 9.00.
With `COc1cc2ncc(-c3ccc(O)cc3)n2cc1S(=O)(=O)C(C)(C)C` [Example 149, 4-(6-(tert-butylsulfonyl)-7-methoxyimidazo[1,2-a]pyridin-3-yl)phenol], the pIC50 in assay [2] was 6.00 to 6.60.
On to `CC(C)(C)S(=O)(=O)c1ccc2ncc(-c3cc(F)nc(NCCC4(O)CC4)c3)n2c1` [Example 172, 1-(2-((4-(6-(tert-butylsulfonyl)imidazo [1,2-a]pyridin-3-yl)-6-fluoropyridin-2-yl)amino)ethyl)cyclo-propan-1-ol], for which, in assay [1], the pIC50 is 8.60 to 9.00.
`CC(C)(C)S(=O)(=O)c1ccc2ncc(-c3cc(F)nc(NCCCO)c3)n2c1` [Example 173, 3-((4-(6-(tert-butylsulfonyl)imidazo [1,2-a]pyridin-3-yl)-6-fluoropyridin-2-yl)amino)propan-1-ol] gave a pIC50 in assay [1] of 7.70 to 8.60.
On to `COc1cc2ncc(-c3cc(F)nc(NC4CCC(O)CC4)c3)n2cc1S(=O)(=O)C(C)(C)C` (stereo not shown) [Example 204, (1r,4r)-4-((4-(6-(tert-butylsulfonyl)-7-methoxyimidazo[1,2-a]pyridin-3-yl)-6-fluoropyridin-2-yl)amino)cyclohexan-1-ol], for which the pIC50 in assay [2] is 6.60 to 7.30.
For the compound `COc1cc2ncc(-c3ccc(N)c(C#N)c3)n2cc1S(=O)(=O)C(C)(C)C` [Example 70, 2-amino-5-(6-(tert-butylsulfonyl)-7-methoxyimidazo[1,2-a]pyridin-3-yl)benzonitrile], in assay [1], the pIC50 is 7.70 to 8.60.
For the compound `COc1ccc(-c2cnc3cc(OC)c(S(=O)(=O)C4CC4)cn23)cc1N` [Example 33, 5-(6-(cyclopropylsulfonyl)-7-methoxyimidazo[1,2-a]pyridin-3-yl)-2-methoxyaniline], the pIC50 in assay [1] (setting [3]) was below 7.70.
For the compound `CC(C)(C)S(=O)(=O)c1ccn2ncc(-c3ccc(NCCCO)nc3F)c2c1` [Example 297, 3-((5-(5-(tert-butylsulfonyl)pyrazolo[1,5-a]pyridin-3-yl)-6-fluoropyridin-2-yl)amino)propan-1-ol], in assay [1] (setting [3]), the pIC50 is below 7.70.
With `COc1cc2ncc(-c3ccnc(N)c3)n2cc1S(=O)(=O)C(C)(C)C` [Example 11, 4-[7-methoxy-6-(2-methylpropane-2-sulfonyl)imidazo[1,2-a]pyridin-3-yl]pyridin-2-amine], the pIC50 in assay [2] was 6.00 to 6.60.
`COc1cc2ncc(-c3cc(F)nc(NCCCNC(C)=O)c3)n2cc1S(=O)(=O)C(C)(C)C` [Example 318, N-[3-({6-fluoro-4-[7-methoxy-6-(2-methylpropane-2-sulfonyl)imidazo [1,2-a]pyridin-3-yl]pyridin-2-yl}amino)propyl] acetamide] gave a negative-log IC50 (pIC50) in assay [1] of 8.60 to 9.00.
As to `COc1cc2ncc(-c3cc(C)nc(F)c3)n2cc1S(=O)(=O)C(C)(C)C` [Example 12, 2-fluoro-4-[7-methoxy-6-(2-methylpropane-2-sulfonyl)imidazo[1,2-a]pyridin-3-yl]-6-methylpyridine], the negative-log IC50 (pIC50) in assay [1] is 7.70 to 8.60.
